Values after ≈ are worked out from the molar mass of the structure shown.
Assays:
A549 = test: Cytotoxicity against human A549 cells assessed as cell growth inhibition incubated for 48 hrs by MTT assay; format: functional, cell-based; conditions: A549, 48 h
NUGC-3 [1] = test: Cytotoxicity against human NUGC-3 cells assessed as cell growth inhibition by measuring lethal dose incubated for 30 mins by MTT assay; format: functional; conditions: NUGC-3, 0.5 h, read-out: LD50 (the source's name)
HeLa S3 = test: Cytotoxicity against human HeLa S3 cells; format: functional, cell-based; conditions: Homo sapiens, HeLa S3; read-out: IC50
P388 = test: Cytotoxicity against mouse P388 cells; format: functional, cell-based; conditions: Mus musculus, P388; read-out: IC50
B16 = test: Cytotoxicity against mouse B16 cells; format: functional, cell-based; conditions: Mus musculus, B16; read-out: IC50
NCI-H69 = test: Cytotoxicity against human NCI-H69 cells; format: functional, cell-based; conditions: Homo sapiens, NCI-H69; read-out: IC50
P388/ADM = test: Cytotoxicity against mouse P388/ADM cells; format: functional, cell-based; conditions: Mus musculus, P388/ADM; read-out: IC50
MIA PaCa-2 = test: Cytotoxicity against human MIA PaCa-2 cells assessed as inhibition of cell growth incubated for 72 hrs by CellTiter 96 aqueous one solution assay; format: functional, cell-based; conditions: MIA PaCa-2, 72 h
PK9 = test: Cytotoxicity against human PK9 cells assessed as inhibition of cell growth incubated for 72 hrs by CellTiter 96 aqueous one solution assay; format: functional, cell-based; conditions: PK9, 72 h
[2] = molecular target: RAC-alpha serine/threonine-protein kinase (Homo sapiens, UniProt P31749); test: Inhibition of AKT1 (unknown origin) in presence of ATP by ELISA
RAC-alpha serine/threonine-protein kinase, sequence (P31749 whole entry): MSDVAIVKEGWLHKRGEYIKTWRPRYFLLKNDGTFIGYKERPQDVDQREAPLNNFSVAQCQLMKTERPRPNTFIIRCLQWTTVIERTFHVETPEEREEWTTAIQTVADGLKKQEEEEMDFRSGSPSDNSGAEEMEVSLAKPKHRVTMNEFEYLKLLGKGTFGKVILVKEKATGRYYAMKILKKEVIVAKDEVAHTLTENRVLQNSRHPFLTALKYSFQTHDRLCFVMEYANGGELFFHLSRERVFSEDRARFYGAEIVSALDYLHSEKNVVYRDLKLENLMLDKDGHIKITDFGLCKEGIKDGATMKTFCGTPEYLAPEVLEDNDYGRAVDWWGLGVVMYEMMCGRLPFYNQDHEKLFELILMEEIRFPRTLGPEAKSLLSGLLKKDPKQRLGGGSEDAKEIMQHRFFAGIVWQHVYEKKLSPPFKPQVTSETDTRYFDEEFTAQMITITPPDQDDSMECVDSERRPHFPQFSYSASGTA

IGROV-1 [3] = test: Antiproliferative activity against human IGROV-1 cells assessed as inhibition of cell growth incubated for 72 hrs by Coulter counter assay; format: functional, cell-based; conditions: IGROV-1, 72 h
IGROV-1 [4] = test: Antiproliferative activity against human IGROV-1 cells assessed as inhibition of cell growth incubated for 72 hrs in serum-free medium by Coulter counter assay; format: functional, cell-based; conditions: IGROV-1, 72 h
HepG2 = test: Cytotoxicity against human HepG2 cells assessed as cell growth inhibition by MTT colorimetric assay; format: functional, cell-based
Hep 3B2 = test: Cytotoxicity against human Hep3B cells assessed as cell growth inhibition by MTT colorimetric assay; format: functional, cell-based
MDA-MB-231 = test: Cytotoxicity against human MDA-MB-231 cells assessed as cell growth inhibition by MTT colorimetric assay; format: functional, cell-based
Ca9-22 = test: Cytotoxicity against human Ca9-22 cells assessed as cell growth inhibition by MTT colorimetric assay; format: functional, cell-based
AGS = test: Antiproliferative activity against human AGS cells assessed as inhibition of cell growth incubated for 48 hrs by MTT assay; format: functional, cell-based
SF-268 = test: Antiproliferative activity against human SF-268 cells assessed as inhibition of cell growth incubated for 48 hrs by MTT assay; format: functional, cell-based
HCT-116 = test: Antiproliferative activity against human HCT-116 cells assessed as inhibition of cell growth incubated for 48 hrs by MTT assay; format: functional, cell-based
NCI-H460 = test: Antiproliferative activity against human NCI-H460 cells assessed as inhibition of cell growth incubated for 48 hrs by MTT assay; format: functional, cell-based
MCF7 = test: Antiproliferative activity against human MCF7 cells assessed as inhibition of cell growth incubated for 48 hrs by MTT assay; format: functional, cell-based
Lung NSCLC-N6 cell-line = test: Cytotoxicity against human Lung NSCLC-N6 cell-line by MTT colorimetric assay; format: functional, cell-based
NUGC-3 [5] = test: Cytotoxicity against human NUGC-3 cells assessed as cell growth inhibition incubated for 30 mins by MTT assay; format: functional, cell-based; conditions: NUGC-3, 0.5 h

Work on `CCCCCCCCCCCCCCCC(=O)OCC(CO[C@H]1O[C@H](CS(=O)(=O)[O-])[C@@H](O)[C@H](O)[C@H]1O)OC(=O)CCCCCCCCCCCCCCC.[Na+]` (some centres undefined) yielded an IC50 (A549) of 83.5 µg/mL.
In the case of `CCCCCCCCCCCCCCCCCC(=O)OCC(CO[C@H]1O[C@H](CS(=O)(=O)[O-])[C@@H](O)[C@H](O)[C@H]1O)OC(=O)CCCCCCCCCCCCCCCCC.[Na+]` (some centres undefined), the IC50 (A549) is reported as 75.5 µg/mL.
For `CCCCCCCCCCCCCCCCCC(=O)OCC(O)CO[C@@H]1O[C@H](CS(=O)(=O)O)[C@@H](O)[C@H](O)[C@H]1O` (some centres undefined), the CC50 (NUGC-3 [1]) was 135 µM.
`CCCCCCCCCCCCCCCCCC(=O)OCC(O)CO[C@H]1O[C@H](CS(=O)(=O)O)[C@@H](O)[C@H](O)[C@H]1O` (some centres undefined) gave a CC50 (NUGC-3 [1]) of 150 µM.
Molecule `C/C=C(\C)[C@H](O[C@@H]1O[C@H](CO)[C@@H](O)[C@H](O)[C@H]1O)[C@H](C)/C=C(C)/C=C/C/C(C)=C/Cc1nc(OC)c(OC)c(O)c1C` has an IC50 (HeLa S3) of 0.11 µg/mL (≈ 0.19 µM), an IC50 (P388) of 0.36 µg/mL (≈ 0.623 µM) and an IC50 (B16) of 0.0074 µg/mL (≈ 0.0128 µM). For the same molecule, the IC50 (NCI-H69) was 0.019 µg/mL (≈ 0.0329 µM) and the IC50 (P388/ADM) was 0.25 µg/mL (≈ 0.433 µM).
`CCCCCCCCCCCCc1cn(CC[C@H]2NC[C@@H](O)[C@H]2O)nn1` was tested, and the IC50 (MIA PaCa-2) was 19 µM and the IC50 (PK9) was 19 µM.
In the case of `CCCCCCCCCCCCc1cn(C[C@@H]2N[C@@H](C)[C@@H](O)[C@H]2O)nn1`, the IC50 (MIA PaCa-2) is reported as 19 µM and the IC50 (PK9) is reported as 19 µM.
For `COc1nc(C/C=C(\C)C/C=C/C(C)=C/[C@@H](C)[C@@H](O[C@@H]2O[C@H](CO)[C@@H](O)[C@H](O)[C@H]2O)/C(C)=C/CO)c(C)c(O)c1OC`, the IC50 (HeLa S3) was 0.76 µg/mL (≈ 1.28 µM), the IC50 (P388) was 1.6 µg/mL (≈ 2.69 µM) and the IC50 (B16) was 0.21 µg/mL (≈ 0.354 µM). It also gave an IC50 (NCI-H69) of 0.066 µg/mL (≈ 0.111 µM) and an IC50 (P388/ADM) of 0.78 µg/mL (≈ 1.31 µM).
Work on `CCCCCCCCCCCCCCCCCOC(=O)O[C@H](COC(=O)CCCCCCCCCCCCCCCCC)COP(=O)(O)O[C@@H]1[C@H](O)[C@H](OP(=O)(O)O)[C@@H](O)[C@H](O)[C@H]1O` yielded an IC50 [2] of 19.7 µM, an IC50 (IGROV-1 [3]) of 49 µM and an IC50 (IGROV-1 [4]) of 3.35 µM.
`CCCCCCCCCCCCOC[C@@H](COO)O[C@@H]1OC[C@@H](O)[C@@H](O)[C@@H]1O` was tested, and the IC50 (HepG2) was 9.2 µg/mL (≈ 22.5 µM), the IC50 (Hep 3B2) was 9.2 µg/mL (≈ 22.5 µM) and the IC50 (MDA-MB-231) was 9.2 µg/mL (≈ 22.5 µM). For the same molecule, the IC50 (Ca9-22) was 9.2 µg/mL (≈ 22.5 µM).
For `CCCCCCCCCCCCc1cn(C[C@H]2NC[C@H](O)[C@@H]2O)nn1`, the IC50 (MIA PaCa-2) was 19 µM and the IC50 (PK9) was 19 µM.
In the case of `CCCCCCCCCCCCCCCCCC(=O)OC[C@H](COC1O[C@H](CS(=O)(=O)[O-])[C@@H](O)[C@H](O)[C@H]1O)OCC(=O)CCCCCCCCCCCCCCC.[Na+]` (some centres undefined), the CC50 (NUGC-3 [1]) is reported as 80 µg/mL.
`CCCCCCCCCCCCCCOC[C@@H](COO)O[C@@H]1OC[C@@H](O)[C@@H](O)[C@@H]1O` showed an IC50 (HepG2) of 9.2 µg/mL (≈ 21.1 µM), an IC50 (Hep 3B2) of 9.2 µg/mL (≈ 21.1 µM) and an IC50 (MDA-MB-231) of 9.2 µg/mL (≈ 21.1 µM). The IC50 (Ca9-22) was 9.2 µg/mL (≈ 21.1 µM).
For `CC/C=C\C/C=C\C/C=C\CCCCCCCC(=O)OCC(CO[C@@H]1O[C@H](CO)[C@H](O)[C@H](O)[C@H]1O)OC(=O)CCCCCCCCCCCCCCCCC` (some centres undefined), the IC50 (AGS) was 0.039 µg/mL (≈ 0.0499 µM), the IC50 (SF-268) was 0.039 µg/mL (≈ 0.0499 µM) and the IC50 (HCT-116) was 0.039 µg/mL (≈ 0.0499 µM). The IC50 (NCI-H460) was 0.039 µg/mL (≈ 0.0499 µM) and the IC50 (MCF7) was 0.039 µg/mL (≈ 0.0499 µM).
For `CO[C@@H]1/C=C(\C)C[C@H](/C=C/C#C[C@H]2C[C@@H]2Cl)OC(=O)[C@@H](C)[C@]2(O)C[C@H](O[C@@H]3O[C@@H](C)[C@H](O[C@@H]4O[C@@H](C)[C@H](O)[C@@](C)(O)[C@H]4OC)[C@@](C)(O)[C@H]3OC)[C@@H](C)[C@@H](O2)[C@@H]1C`, the IC50 (Lung NSCLC-N6 cell-line) was 15.1 µg/mL (≈ 18.5 µM).
In the case of `CCCCCCCCCCCCCCCCCC(=O)OCC(O)CO[C@H]1O[C@H](CO)[C@@H](O)[C@H](O)[C@H]1O` (some centres undefined), the IC50 (NUGC-3 [5]) is reported as 110 µM.

Reference: ChEMBL document CHEMBL5260828, “Amphiphilic glycoconjugates as potential anti-cancer chemotherapeutics” (Eur J Med Chem, 2018)
